# From patent US9771343B2, “2-alkyl-or-aryl-substituted tanshinone derivatives, and preparation method and application thereof” (Hangzhou Bensheng Pharmaceutical Co., Ltd., priority 2011, dated 2017)
# Tests used:
# [1] = test system: K562/adr (drug-resistant, chronic myeloid leukemia, CML); assay: MTT cell growth inhibition, K562/adr leukemia cells, 72 h; type: cell-based; conditions: Homo sapiens, K562/Adr; for IC50: read-out: IC50; for IC90: read-out: IC90
# Protocol: (§1) The standard sample of tanshinone I (TA) and the 2-alkyl- or 2-aromatic-substituted tanshinone I derivatives of the present invention are sufficiently dissolved in dimethylsulfoxide to produce a stock solution of 10 mg/mL, which is refrigerated at 4° C. and stored in dark, and is diluted with cell culture medium to a desired concentration prior to experimentation.
# (§2) Obtaining 6000 well-growing leukemia cells and inoculating them into wells of a 96-well cell culture plate. The culture medium is the RPMI-1640 cell culture medium containing 10% fetal bovine serum. After adding on the second day the 2-alkyl- or 2-aromatic-substituted tanshinone I derivatives of different concentrations and mixing uniformly, placing the plate in a carbon dioxide cell incubator (5% CO2) at 37° C. and incubated for 72 hours. Then the viable cell concentration is determined by MTT method. In this experiment, the cell viability in control group (not treated with any compound) is set as 100%, and the cell viability (%) after treatment by the compounds and the half maximum inhibitory concentration for the leukemia cell at 72 hours (IC50 value of 72 hours, μg/mL) are calculated.
# [2] = test system: Kasumi-1 (acute myeloid leukemia M2 type, AML-M2); assay: MTT cell growth inhibition, Kasumi-1 leukemia cells, 72 h; type: cell-based; conditions: Homo sapiens, Kasumi-1, 72 h; for IC50: read-out: IC50; for IC90: read-out: IC90
# Protocol: as §1, §2
# [3] = test system: NB4 (acute promyelocytic leukemia, AML); assay: MTT cell growth inhibition, NB4 leukemia cells, 72 h; type: cell-based; conditions: NB4, 72 h; for IC50: read-out: IC50; for IC90: read-out: IC90
# Protocol: as §1, §2
# [4] = test system: Jurkat (acute lymphoblastic leukemia, ALL); assay: MTT cell growth inhibition, Jurkat leukemia cells, 72 h; type: cell-based; conditions: for IC50 / IC90: Homo sapiens, 72 h; for IC50: read-out: IC50; for IC90: read-out: IC90
# Protocol: as §1, §2
# [5] = test system: H9 (acute lymphoblastic leukemia, ALL); assay: MTT cell growth inhibition, H9 leukemia cells, 72 h; type: cell-based; conditions: H9, 72 h; for IC50: read-out: IC50; for IC90: read-out: IC90
# Protocol: as §1, §2
# [6] = test system: RPMI8226 (multiple myeloma); assay: MTT cell growth inhibition, RPMI8226 multiple myeloma cells, 72 h; type: cell-based, human; conditions: for IC50 / IC90: Homo sapiens, RPMI 8226, 72 h; for IC50: read-out: IC50; for IC90: read-out: IC90
# Protocol: as §1, §2
# [7] = test system: A549 (human lung cancer); assay: MTT cell growth inhibition, A549 cells, 72 h; type: cell-based; conditions: Homo sapiens, A549, 72 h; for IC50: read-out: IC50; for IC90: read-out: IC90
# Protocol: as §1, with “with a” for “with”, “to the” for “to a”
# (§3) Obtaining 6000 well-growing human solid tumor cells and inoculating them into wells of a 96-well cell culture plate. The culture medium is DMEM High Glucose cell culture medium containing 10% fetal bovine serum. The plate is placed in a carbon dioxide cell incubator (5% CO2) at 37° C. and incubated for 24 hours. After adding the 2-alkyl- or 2-aromatic-substituted tanshinone I derivatives of different concentrations and mixing uniformly, the plate is placed in a carbon dioxide cell incubator (5% CO2) at 37° C. and incubated for 72 hours. Then the viable cell concentration is determined by MTT method. In this experiment, the cell viability in control group (not treated with any compound) is set as 100%, and the cell viability (%) after treatment by the compounds and the half maximum inhibitory concentration for the leukemia cell at 72 hours (IC50 value of 72 hours, μg/mL) are calculated.
# [8] = test system: PANC-1 (pancreatic cancer); assay: MTT cell growth inhibition, PANC-1 cells, 72 h; type: cell-based, human; conditions: Homo sapiens, PANC-1, 72 h; for IC50: read-out: IC50; for IC90: read-out: IC90
# Protocol: as §1, with “with a” for “with”, “to the” for “to a”
# as §3
# [9] = test system: Becap37 (human breast cancer cell); assay: MTT cell growth inhibition, Becap37 cells, 72 h; type: cell-based; conditions: for IC50 / IC90: Homo sapiens, Becap-37, 72 h; for IC50: read-out: IC50; for IC90: read-out: IC90
# Protocol: as §1, with “with a” for “with”, “to the” for “to a”
# as §3
# [10] = test system: MG63 (osteosarcoma); assay: MTT cell growth inhibition, MG63 cells, 72 h; type: cell-based, human; conditions: Homo sapiens, MG-63, 72 h; for IC50: read-out: IC50; for IC90: read-out: IC90
# Protocol: as §1, with “with a” for “with”, “to the” for “to a”
# as §3
# [11] = test system: Hep G2 (human liver cancer cell); assay: MTT cell growth inhibition, Hep G2 cells, 72 h; type: cell-based; conditions: for IC50 / IC90: Homo sapiens, HepG2, Hep G2, 72 h; for IC50: read-out: IC50; for IC90: read-out: IC90
# Protocol: as §1, with “with a” for “with”, “to the” for “to a”
# as §3
# [12] = test system: RKO (human colon adenocarcinoma cell); assay: MTT cell growth inhibition, RKO cells, 72 h; type: cell-based; conditions: for IC50 / IC90: Homo sapiens, RKO, 72 h; for IC50: read-out: IC50; for IC90: read-out: IC90
# Protocol: as §1, with “with a” for “with”, “to the” for “to a”
# as §3
# [13] = test system: U87 MG (malignant glioma cell); assay: MTT cell growth inhibition, U87 MG cells, 72 h; type: cell-based, human; conditions: for IC50 / IC90: Homo sapiens, U-87 MG, U87-MG, 72 h; for IC50: read-out: IC50; for IC90: read-out: IC90; for anti-U87 MG activity (in words): Table 2
# Protocol: as §1, with “with a” for “with”, “to the” for “to a”
# as §3
# [14] = test system: Hela (human cervical cancer cell); assay: MTT cell growth inhibition, Hela cells, 72 h; type: cell-based; conditions: for IC50 / IC90: Homo sapiens, HeLa, 72 h; for IC50: read-out: IC50; for IC90: read-out: IC90
# Protocol: as §1, with “with a” for “with”, “to the” for “to a”
# as §3
# [15] = test system: CaES-17 (esophageal cancer cell); assay: MTT cell growth inhibition, CaES-17 cells, 72 h; type: cell-based, human; conditions: Homo sapiens, CaEs17, CaEs-17, 72 h; for IC50: read-out: IC50; for IC90: read-out: IC90
# Protocol: as §1, with “with a” for “with”, “to the” for “to a”
# as §3
# [16] = test system: CNE (nasopharyngeal carcinoma cell); assay: MTT cell growth inhibition, CNE cells, 72 h; type: cell-based, human; conditions: for IC50 / IC90: Homo sapiens, CNE, 72 h; for IC50: read-out: IC50; for IC90: read-out: IC90
# Protocol: as §1, with “with a” for “with”, “to the” for “to a”
# as §3
# [17] = test system: Hep-2 (laryngeal carcinoma); assay: MTT cell growth inhibition, Hep-2 cells, 72 h; type: cell-based, human; conditions: Homo sapiens, HEp-2, 72 h; for IC50: read-out: IC50; for IC90: read-out: IC90
# Protocol: as §1, with “with a” for “with”, “to the” for “to a”
# as §3
# [18] = test system: MGC 803 (human gastric cancer cell); assay: MTT cell growth inhibition, MGC 803 cells, 72 h; type: cell-based; conditions: Homo sapiens, MGC-803, 72 h; for IC50: read-out: IC50; for IC90: read-out: IC90
# Protocol: as §1, with “with a” for “with”, “to the” for “to a”
# as §3
# [19] = test system: PC-3 (prostate cancer); assay: MTT cell growth inhibition, PC-3 cells, 72 h; type: cell-based, human; conditions: Homo sapiens, PC-3, 72 h; for IC50: read-out: IC50; for IC90: read-out: IC90
# Protocol: as §1, with “with a” for “with”, “to the” for “to a”
# as §3
# [20] = test system: SK-OV-3 (ovarian cancer cell); assay: MTT cell growth inhibition, SK-OV-3 cells, 72 h; type: cell-based, human; conditions: for IC50 / IC90: Homo sapiens, SK-OV-3, 72 h; for IC50: read-out: IC50; for IC90: read-out: IC90
# Protocol: as §1, with “with a” for “with”, “to the” for “to a”
# as §3
smiles,measurement,setting,value
Cc1c(-c2ccccc2Cl)oc2c1C(=O)C(=O)c1c-2ccc2c(C)cccc12 [BS-TA-04],IC50,[1],15.5 µg/mL
same,IC90,[1],> 16 µg/mL
same,IC50,[2],> 16 µg/mL
same,IC90,[2],> 16 µg/mL
same,IC50,[3],4.09 µg/mL
same,IC90,[3],11.2 µg/mL
same,IC50,[4],4.83 µg/mL
same,IC90,[4],9.72 µg/mL
same,IC50,[5],6.7 µg/mL
same,IC90,[5],> 16 µg/mL
same,IC50,[6],4 µg/mL
same,IC90,[6],16.1 µg/mL
same,IC50,[7],6.92 µg/mL
same,IC90,[7],> 16 µg/mL
same,IC50,[8],9.8 µg/mL
same,IC90,[8],> 16 µg/mL
same,IC50,[9],9.34 µg/mL
same,IC90,[9],> 16 µg/mL
same,IC50,[10],10.3 µg/mL
same,IC90,[10],> 16 µg/mL
same,IC50,[11],14.5 µg/mL
same,IC90,[11],> 16 µg/mL
same,IC50,[12],5.01 µg/mL
same,IC90,[12],> 16 µg/mL
same,IC50,[13],5.73 µg/mL
same,IC90,[13],19.2 µg/mL
same,anti-U87 MG activity (in words),[13],superior to that of tanshinone I per se
same,IC50,[14],5.5 µg/mL
same,IC90,[14],22.2 µg/mL
same,IC50,[15],11 µg/mL
same,IC90,[15],28.8 µg/mL
same,IC50,[16],10.5 µg/mL
same,IC90,[16],> 16 µg/mL
same,IC50,[17],11.6 µg/mL
same,IC90,[17],> 16 µg/mL
same,IC50,[18],8.88 µg/mL
same,IC90,[18],23.9 µg/mL
same,IC50,[19],> 16 µg/mL
same,IC90,[19],> 16 µg/mL
same,IC50,[20],> 16 µg/mL
same,IC90,[20],> 16 µg/mL
Cc1c(-c2ccc(OCC(O)CO)cc2)oc2c1C(=O)C(=O)c1c-2ccc2c(C)cccc12 (stereo not drawn) [BS-TA-301],IC50,[1],1.36 µg/mL
same,IC90,[1],7.61 µg/mL
same,IC50,[2],0.97 µg/mL
same,IC90,[2],31.1 µg/mL
same,IC50,[3],0.31 µg/mL
same,IC90,[3],3.22 µg/mL
same,IC50,[4],0.48 µg/mL
same,IC90,[4],> 16 µg/mL
same,improvement of anti-Jurkat activity as compared with tanshinone I per se,[4]; vs tanshinone I,more than 3 fold
same,IC50,[5],3 µg/mL
same,IC90,[5],> 16 µg/mL
same,IC50,[6],0.58 µg/mL
same,IC90,[6],16.2 µg/mL
same,anti-RPMI8226 cell line activity (in words),[6]; as compared with tanshinone I per se,improves the anti-RPMI8226 cell line activity significantly
same,IC50,[7],6.68 µg/mL
same,IC90,[7],25.9 µg/mL
same,IC50,[8],7.34 µg/mL
same,IC90,[8],24.1 µg/mL
same,IC50,[9],1.99 µg/mL
same,IC90,[9],7.83 µg/mL
same,anti-Becap37 activity (in words),[9]; Table 2,superior to that of tanshinone I per se
same,IC50,[10],1.62 µg/mL
same,IC90,[10],7.44 µg/mL
same,IC50,[11],2.09 µg/mL
same,IC90,[11],16.3 µg/mL
same,anti-Hep G2 activity (in words),[11]; Table 2,superior to that of tanshinone I per se
same,IC50,[12],0.87 µg/mL
same,IC90,[12],26.6 µg/mL
same,anti-RKO activity (in words),[12]; Table 2,superior to that of tanshinone I per se
same,IC50,[13],2.85 µg/mL
same,IC90,[13],15.4 µg/mL
same,anti-U87 MG activity (in words),[13],superior to that of tanshinone I per se
same,IC50,[14],1.07 µg/mL
same,IC90,[14],24 µg/mL
same,anti-Hela activity (in words),[14]; Table 2,superior to that of tanshinone I per se
same,IC50,[15],3.78 µg/mL
same,IC90,[15],> 16 µg/mL
same,IC50,[16],3.2 µg/mL
same,IC90,[16],45 µg/mL
same,anti-CNE activity (in words),[16]; Table 2,good antitumor activity
same,IC50,[17],5.27 µg/mL
same,IC90,[17],> 16 µg/mL
same,IC50,[18],1.74 µg/mL
same,IC90,[18],16 µg/mL
same,IC50,[19],9.94 µg/mL
same,IC90,[19],> 16 µg/mL
same,IC50,[20],11.7 µg/mL
same,IC90,[20],> 16 µg/mL
same,anti-SK-OV-3 activity (in words),[20]; Table 2,superior to that of tanshinone I per se
